Assay results reported in patent US9738932B2, “Biomarkers for cardiovascular side-effects induced by cox-2 inhibitory compounds” (FIRALIS SAS, priority 2005, dated 2017).

Tested on: mRNA expression in cardiovascular tissues
Assay: Affymetrix GeneChip mRNA expression profiling of monkey tissues (iliac vein, pulmonary vein, aorta, carotid artery, heart) after two-week oral-gavage treatment
Details: iliac vein
[1] = group average (Vioxx without A60055)
[2] = group avg, Vioxx without A60055

Experimental: Administration of compounds. A two-week oral-gavage treatment with the Cox-2 specific inhibitor COX189 (Lumiracoxib®, Novartis) in comparison with rofecoxib (Vioxx®, Merck), and celecoxib (Celebrex®, Pharmacia/Pfizer), and with the nonselective NSAID, diclofenac (Voltaren®, Novartis) was performed. […] The test items were administered daily at doses of 100 mg/kg/day, except Vioxx® which was administered at 50 mg/kg/day.
Gene expression profiles. After a period of time (e.g., four weeks) of compound/drug administration, the treated animals are necropsied. 120 tissues are dissected and rapidly snap-frozen for genomics analysis. Organ samples are isolated for histopathological examinations and for gene expression localizations, such as by in situ hybridization.
Gene expression profiles have been generated using the Affymetrix microarray technology. (i) RNA extraction and purification: Briefly, total RNA was obtained by acid guanidinium thiocyanate-phenol-chloroform extraction (Trizol®, Invitrogen Life Technologies, San Diego, Calif.) from each frozen tissue section and the total RNA was then purified on an affinity resin (Rneasy®, Qiagen) according to the manufacturer's instructions. Total RNA was quantified by the absorbance at λ=260 nm (A260 nm) and the purity was estimated by the ratio A260 nm/A280 nm. Integrity of the RNA molecules was confirmed by non-denaturing agarose gel electrophoresis. RNA was stored at −80° C. until analysis. […] (ii) GeneChip® experiment: All GeneChip® experiments were conducted in the Genomics Factory EU following recommendations by the manufacturer of the GeneChip® system (Affymetrix, Expression Analysis Technical Manual (Affymetrix, Santa Clara, Calif., 2005). Human U133A genome arrays were used for transcript expression analysis. Double stranded cDNA was synthesized with a starting amount of approximately 5 μg full-length total RNA using the Superscript Choice System (Invitrogen Life Technologies) in the presence of a T7-(dT) 24 DNA oligonucleotide primer. Following synthesis, the cDNA was purified by phenol/chloroform/isoamyl alcohol extraction and ethanol precipitation. The purified cDNA was then transcribed in vitro using the BioArray® High Yield RNA Transcript Labeling Kit (ENZO) in the presence of biotinylated ribonucleotides form biotin labelled cRNA. The labelled cRNA was then purified on an affinity resin (Rneasy, Qiagen), quantified and fragmented. An amount of approximately 10 μg labelled cRNA was hybridized for approximately 16 hours at 45° C. to an expression probe array. The array was then washed and stained twice with streptavidin-phycoerythrin (Molecular Probes) using the GeneChip Fluidics Workstation 400 (Affymetrix). The array was then scanned twice using a confocal laser scanner (GeneArray Scanner®, Agilent) resulting in one scanned image. This resulting “.dat-file” was processed using the MASS program (Affymetrix) into a “.cel-file”. The “.cel file” was then transferred to tan Affymetrix GeneChip Laboratory Information Management System (LIMS) database, which is connected to a UNIX Sun Solaris server through a network filing system that allows for the average intensities for all probes cells (CEL file) to be downloaded into an Oracle database (NPGN). Raw data was converted to expression levels using a “target intensity” of 100. […] The data were checked for quality and loaded in the GeneSpring® software versions 5.0 (Silicon Genetics, Calif., US) for statistical analysis.
Quality control analysis of transcriptome data: The following quality measures were analysed for each sample: Scaling factor, background, percent present calls, AFFX-GAPDH 3′: AFFX-GAPDH 5′-ratio, AFFX-GAPDH 3′ variance, AFFX-Beta-actin 3′: AFFX-Beta-actin 5′-ratio.

SMILES: O=C(O)Cc1ccccc1Nc1c(Cl)cccc1Cl [Voltaren]
- ACE (209749_s_at) mRNA expression, Avg fold changes vs control [1]: 1.1 fold
- B2M (216231_s_at) mRNA expression, Avg fold changes vs control [1]: 1.2 fold
- BCL6 (215990_s_at) mRNA expression, Avg fold changes vs control [1]: 1.0 fold
- BTN2A2 (205298_s_at) mRNA expression, Avg fold changes vs control [1]: 1.1 fold
- CCR1 (205098_at) mRNA expression, Avg fold changes vs control [1]: 1.3 fold
- CD2 (205831_at) mRNA expression, Avg fold changes vs control [1]: 1.1 fold
- CD48 (204118_at) mRNA expression, Avg fold changes vs control [1]: 1.2 fold
- CD53 (203416_at) mRNA expression, Avg fold changes vs control [1]: 1.4 fold
- CDC2 (210559_s_at) mRNA expression, Avg fold changes vs control [1]: 1.2 fold
- CYBB (203922_s_at) mRNA expression, Avg fold changes vs control [1]: 1.1 fold
- EMP3 (203729_at) mRNA expression, Avg fold changes vs control [1]: 0.8 fold
- FCER1G (204232_at) mRNA expression, Avg fold changes vs control [1]: 1.5 fold
- FCGR2A (203561_at) mRNA expression, Avg fold changes vs control [1]: 1.4 fold
- FCGRT (218831_s_at) mRNA expression, Avg fold changes vs control [1]: 0.9 fold
- FKBP11 (219117_s_at) mRNA expression, Avg fold changes vs control [1]: 0.7 fold
- FKBP11 (219118_at) mRNA expression, Avg fold changes vs control [1]: 0.8 fold
- GP6 (220336_s_at) mRNA expression, Avg fold changes vs control [1]: 1.0 fold
- HCLS1 (202957_at) mRNA expression, Avg fold changes vs control [1]: 1.1 fold
- HEM1 (209734_at) mRNA expression, Avg fold changes vs control [1]: 1.1 fold
- HLA-A (210514_x_at) mRNA expression, Avg fold changes vs control [1]: 1.0 fold
- HLA-A (213932_x_at) mRNA expression, Avg fold changes vs control [1]: 1.1 fold
- HLA-C (211799_x_at) mRNA expression, Avg fold changes vs control [1]: 0.8 fold
- HLA-E (200904_at) mRNA expression, Avg fold changes vs control [1]: 1.2 fold
- HLA-F (221978_at) mRNA expression, Avg fold changes vs control [1]: 1.4 fold
- ICAM1 (202637_s_at) mRNA expression, Avg fold changes vs control [1]: 1.0 fold
- IL13RA1 (210904_s_at) mRNA expression, Avg fold changes vs control [1]: 0.9 fold
- PIK3CD (203879_at) mRNA expression, Avg fold changes vs control [1]: 1.3 fold
- PRKCBP1 (209048_s_at) mRNA expression, Avg fold changes vs control [1]: 1.0 fold
- PRKCBP1 (209049_s_at) mRNA expression, Avg fold changes vs control [1]: 1.0 fold
- PTPN7 (204852_s_at) mRNA expression, Avg fold changes vs control [1]: 1.4 fold
- SIGIRR (52940_at) mRNA expression, Avg fold changes vs control [1]: 1.0 fold
- STAT1 (200887_s_at) mRNA expression, Avg fold changes vs control [1]: 1.1 fold
- STAT1 (AFFX-HUMISGF3A/M97935_3_at) mRNA expression, Avg fold changes vs control [1]: 1.0 fold
- STAT3 (208992_s_at) mRNA expression, Avg fold changes vs control [1]: 1.1 fold
- TCIRG1 (204158_s_at) mRNA expression, Avg fold changes vs control [1]: 1.0 fold
- THY1 (213869_x_at) mRNA expression, Avg fold changes vs control [1]: 0.6 fold
- TMPO (209753_s_at) mRNA expression, Avg fold changes vs control [1]: 1.1 fold
- TMSB10 (217733_s_at) mRNA expression, Avg fold changes vs control [1]: 1.2 fold
- TNFRSF21 (218856_at) mRNA expression, Avg fold changes vs control [1]: 1.2 fold
- TRB@ (210915_x_at) mRNA expression, Avg fold changes vs control [1]: 1.0 fold
- TRB@ (213193_x_at) mRNA expression, Avg fold changes vs control [1]: 1.2 fold
- 209813_x_at avg fold change vs control [2]: 1.0 fold
- AIF1 (209901_x_at) avg fold change vs control [2]: 1.2 fold
- AIF1 (213095_x_at) avg fold change vs control [2]: 1.5 fold
- B2M (201891_s_at) avg fold change vs control [2]: 1.4 fold
- BCL3 (204908_s_at) avg fold change vs control [2]: 1.3 fold
- BTN3A1 (207485_x_at) avg fold change vs control [2]: 1.1 fold
- BTN3A3 (38241_at) avg fold change vs control [2]: 1.2 fold
- BTN3A3 (204820_s_at) avg fold change vs control [2]: 1.3 fold
- BTN3A3 (204821_at) avg fold change vs control [2]: 1.5 fold
- C1QA (218232_at) avg fold change vs control [2]: 1.2 fold
- C1QB (202953_at) avg fold change vs control [2]: 1.1 fold
- C1R (212067_s_at) avg fold change vs control [2]: 1.4 fold
- C1S (208747_s_at) avg fold change vs control [2]: 1.7 fold
- C2 (203052_at) avg fold change vs control [2]: 1.2 fold
- C4A (208451_s_at) avg fold change vs control [2]: 2.4 fold
- CASP1 (209970_x_at) avg fold change vs control [2]: 1.5 fold
- CASP1 (211367_s_at) avg fold change vs control [2]: 1.3 fold
- CCL2 (216598_s_at) avg fold change vs control [2]: 9.0 fold
- CCL3 (205114_s_at) avg fold change vs control [2]: 1.4 fold
- CCL5 (1405_i_at) avg fold change vs control [2]: 2.2 fold
- CCL8 (214038_at) avg fold change vs control [2]: 1.8 fold
- CCL18 (209924_at) avg fold change vs control [2]: 1.6 fold
- CCL19 (210072_at) avg fold change vs control [2]: 1.6 fold
- CCNB2 (202705_at) avg fold change vs control [2]: 1.3 fold
- CD3D (213539_at) avg fold change vs control [2]: 1.9 fold
- CD8A (205758_at) avg fold change vs control [2]: 1.4 fold
- CD14 (201743_at) avg fold change vs control [2]: 1.1 fold
- CD74 (209619_at) avg fold change vs control [2]: 1.3 fold
- CLU (208791_at) avg fold change vs control [2]: 1.0 fold
- CMAH (210571_s_at) avg fold change vs control [2]: 1.4 fold
- CTSC (201487_at) avg fold change vs control [2]: 1.4 fold
- CTSK (202450_s_at) avg fold change vs control [2]: 1.3 fold
- CTSS (202902_s_at) avg fold change vs control [2]: 1.3 fold
- CX3CR1 (205898_at) avg fold change vs control [2]: 1.6 fold
- CXCL9 (203915_at) avg fold change vs control [2]: 1.3 fold
- CXCL10 (204533_at) avg fold change vs control [2]: 1.3 fold
- CXCL11 (210163_at) avg fold change vs control [2]: 2.1 fold
- CXCL11 (211122_s_at) avg fold change vs control [2]: 2.0 fold
- CXCL12 (209687_at) avg fold change vs control [2]: 1.3 fold
- CYBA (203028_s_at) avg fold change vs control [2]: 1.0 fold
- CYBB (203923_s_at) avg fold change vs control [2]: 1.2 fold
- CYP1B1 (202436_s_at) avg fold change vs control [2]: 1.3 fold
- CYP3A5 (214234_s_at) avg fold change vs control [2]: 1.2 fold
- CYP11B1 (214630_at) avg fold change vs control [2]: 0.9 fold
- DUSP6 (208893_s_at) avg fold change vs control [2]: 1.1 fold
- ECGF1 (204858_s_at) avg fold change vs control [2]: 1.4 fold
- ECM1 (209365_s_at) avg fold change vs control [2]: 1.1 fold
- F2RL1 (206429_at) avg fold change vs control [2]: 1.5 fold
- F13A1 (203305_at) avg fold change vs control [2]: 1.3 fold
- FCGR1A (214511_x_at) avg fold change vs control [2]: 1.0 fold
- FCGR3A (204006_s_at) avg fold change vs control [2]: 1.5 fold
- G1P2 (205483_s_at) avg fold change vs control [2]: 2.1 fold
- GZMB (210164_at) avg fold change vs control [2]: 1.8 fold
- HCA127 (220040_x_at) avg fold change vs control [2]: 0.5 fold
- HCK (208018_s_at) avg fold change vs control [2]: 1.2 fold
- HFE (210864_x_at) avg fold change vs control [2]: 0.9 fold
